Earlier results on two molecules are cited in patent US6585958B1, “Medicinal aerosol formulations” (Jago Research AG, priority 1998, dated 2003).

For this data set the following is noted: at 20° C.

With `FCC(F)(F)F` [HFA 134a, 1,1,1,2-tetrafluoroethane], the density entry is reported as “about 1.2 mg/ml” and the vapor pressure result is listed as “about 6 bar”.

On to `FC(C(F)(F)F)C(F)(F)F` [HFA 227, 1,1,1,2,3,3,3-heptafluoropropane], for which the density entry is recorded as “about 1.4 mg/ml” and the vapor pressure result was “about 4.2 bar”.
